The values below come from patent US20260345717A1, “COMPOSITION FOR PREVENTING, AMELIORATING, OR TREATING ALZHEIMER'S DISEASE COMPRISING GRAPEVINE STEM EXTRACT OR COMPOUND ISOLATED THEREFROM AS EFFECTIVE COMPONENT” (KOREA INSTITUTE OF ORIENTAL MEDICINE, priority 2022, published 2026).

Data set [1] deals with herpes simplex virus (HSV-1) in Vero cells. In words: Antiviral effect: HSV-1 (GFP) infection of Vero cells, flow cytometry. It is filed as cell-based. The conditions noted are these: for inhibition at 10 µM / inhibition at 5 µM: Human alphaherpesvirus 1, Vero, 18 h, read-out: inhibition rate of virus replication; for antiviral effect compared with other components of the extract: FIG. 2. How it is done: Vero cells were cultured in DMEM medium supplemented with 10% fetal bovine serum (FBS) and 1% penicillin/streptomycin. After culturing, the cells were infected with herpes simplex virus (HSV-1, 0.1 MOI) for 2 hours in DMEM medium supplemented with 1% penicillin/streptomycin. The infection solution was removed, the cells were washed with PBS and then treated with the samples from Preparation example 1 at different concentrations in DMEM supplemented with 10% FBS and 1% penicillin/streptomycin. The cells were subsequently cultured for 18 hours. Afterwards, the cells were recovered, fixed with 4% paraformaldehyde, washed with PBS, and GFP of the virus was quantified using flow cytometry. The cell infection rate was expressed as the infection rate compared to the group (Virus) that had not been treated with any sample.
In addition, the antiviral effect of the components contained in the grapevine stem extract obtained in Preparation example 2, i.e., vitisin A, &-viniferin, caraphenol A, betuin, cis-vitisin A, ampelopsin A, lupeol, vitisin B, malibatol A, viniferether B, lupenone, and resveratrol, was also determined by conducting experiments in the same manner as above.
Background: A flow cytometer gives signals particle by particle.

The subject of data set [2] is U373-MG cells infected with herpes simplex virus (HSV-1). In words: Cell survival of HSV-1 infected U373-MG cells, MTT assay. The conditions noted are these: compared to untreated group (control), FIG. 5A; for viability at 10 µM: Homo sapiens, 18 h, read-out: cell survival rate. It counts as cell-based, human. How it is done: (§1) U373-MG cells, a human-derived glioblastoma, were cultured in RPMI1640 medium supplemented with 10% FBS (Fetal bovine serum) and 1% penicillin/streptomycin. After culturing, the cells were infected with herpes simplex virus (HSV-1, 0.1 MOI) in RPMI1640 medium supplemented with 1% penicillin/streptomycin. After 2 hours, the infection solution was removed. After washing with PBS, the cells were treated for 18 hours with a sample in RPMI1640 supplemented with 10% FBS and 1% penicillin/streptomycin. […] Cell survival rate was expressed as cell survival rate compared to the untreated group (control).
A general note: Tetrazolium assays rely on reduction of a dye to a coloured formazan, in cell work by metabolically active cells.

Data set [3] deals with gB protein of the herpes simplex virus. In words: gB viral protein expression in HSV-1 infected U373-MG cells, Western blot. It is filed as cell-based, herpes simplex virus (HSV-1). The conditions noted are these: 10 μM, FIG. 5B, 1080 min. Background: In western blotting, separated proteins are transferred to a membrane and probed.
Data set [4] concerns herpes simplex virus protein ICP27. In words: ICP27 viral protein expression in HSV-1 infected U373-MG cells. It counts as cell-based, herpes simplex virus (HSV-1). The conditions noted are these: concentration not restated.
The test system of data set [5] is herpes simplex virus protein VP16. In words: VP16 viral protein expression in HSV-1 infected U373-MG cells. It is filed as cell-based, herpes simplex virus (HSV-1). As to conditions: concentration not restated.
The next data set deals with amyloid beta (Aβ1-42). In words: Amyloid beta (Aβ1-42) expression in HSV-1 infected U373-MG cells, Western blot. It is filed as cell-based, human. The conditions noted are these: 10 μM, FIGS. 10A and 10B. As to the method:
as §1
(§2) The experiment was conducted in the same manner as the cell experiment in Example 3, but vitisin A, cis-vitisin A, and vitisin B isolated from grapevine stem extract were treated as test samples, and cell proteins were isolated to determine the expression of proteins that are related to dementia.

The next data set has as its system tau protein (p-tau). In words: Phosphorylation of tau protein (p-tau) in HSV-1 infected U373-MG cells, Western blot. It is filed as cell-based, human. As to conditions: 10 μM, FIGS. 10A and 10B. As to the method:
as §1, §2

Turning to `Oc1ccc(C=Cc2cc(O)cc(O)c2)cc1` (single isomer, unassigned) [Resveratrol, resveratrol], the “inhibition of viral infection” value in data set [1] (Vero cells, HSV-1 0.1 MOI, 18 hours, concentration not restated in this sentence) is listed as 67%.
`C=C(C)[C@@H]1CC[C@]2(C)CC[C@]3(C)[C@H](CC[C@@H]4[C@@]5(C)CC[C@H](O)C(C)(C)[C@@H]5CC[C@]43C)[C@@H]12` (single isomer, unassigned) [lupeol]: the inhibition at 10 µM in data set [1] worked out at 59%.
As to `Oc1ccc([C@H]2c3c(O)cc(O)cc3[C@H]3c4c(cc(O)cc4[C@@H]2O)O[C@@H]3c2ccc(O)cc2)cc1` [amphelopsin A, ampelopsin A], in data set [1], the inhibition at 10 µM amounted to 54%.
The same measure, in the same setting: then `Oc1ccc(-c2oc3cc(O)cc4c3c2-c2cc(O)cc3c2[C@H](c2cc(O)cc5c2[C@@H]4[C@H](c2ccc(O)cc2)O5)[C@@H](c2ccc(O)cc2)O3)cc1` [caraphenol A], with 41%.
As for `Oc1ccc([C@H]2c3c(O)cc(O)cc3[C@H]3c4c(cc(O)cc4[C@@H]2c2cc(/C=C/c4cc(O)cc5c4[C@H](c4cc(O)cc(O)c4)[C@@H](c4ccc(O)cc4)O5)ccc2O)O[C@@H]3c2ccc(O)cc2)cc1` [vitisin A], in data set [1], the inhibition at 5 µM is 80% and the inhibition at 10 µM was found to be 96%. In data set [1] (Vero cells), the “antiviral effect compared with other components of the extract” value is listed as “best antiviral effect”. Further, in data set [2], the viability at 10 µM is 87%. The “reduction of gB protein compared to the virus-infected group” value (shortened to “reduction of gB protein”) in data set [3] came to 99%. In data set [4], the “inhibition rate against ICP27 compared to the virus-infected group” value is recorded as 93%. Besides, the “inhibition rate against VP16 compared to the virus-infected group” value in data set [5] was found to be 100%. In addition, the “expression of amyloid beta (Aβ1-42) compared to the virus-infected group” value with amyloid beta (Aβ1-42) is reported as “significantly reduced”. The “phosphorylation of tau protein (p-tau) compared to the virus-infected group” value in the data set on tau protein (p-tau) was “significantly reduced”.
For the molecule `Oc1ccc([C@H]2Oc3cc(O)cc(/C=C/c4ccc5c(c4)[C@@H](c4cc(O)cc6c4[C@H](c4cc(O)cc(O)c4)[C@@H](c4ccc(O)cc4)O6)[C@H](c4ccc(O)cc4)O5)c3[C@@H]2c2cc(O)cc(O)c2)cc1` [vitisin B], in data set [1], the inhibition at 5 µM is 80% and the inhibition at 10 µM amounted to 76%. In addition, the “antiviral effect compared with other components of the extract” value in data set [1] (Vero cells) is recorded as “best antiviral effect”. Moreover, the viability at 10 µM in data set [2] came out at 76%. Moreover, the “reduction of gB protein” value in data set [3] was 66%.
As to `Oc1ccc(/C=C/c2cc(O)cc3c2C(c2cc(O)cc(O)c2)C(c2ccc(O)cc2)O3)cc1` (stereo not drawn) [ε-viniferin], the inhibition at 10 µM in data set [1] worked out at 42%.
On to cis-vitisin A, for which the cell survival rate in data set [2] (10 μM, 1080 min) amounted to 84%. In data set [3], the “reduction of gB protein” value was 27%.

As a reminder, the inhibition is the share of the control response that was lost under treatment.
